Test results reported in patent publication US20110201499A1, “Method of Improving Plant Yield of Soybeans by Treatment with Herbicides” (priority 2010, published 2011).

System: Soybean (FG72 trait)
Experiment: in-field research trial of herbicidal treatment effect on soybean yield
Type: in vivo
Details: isoxaflutole 35 g ai/ha soil treatment pre-emergence, then one application of glyphosate 1060 g ai/ha plus ammonium sulfate 2850 g ai/ha; weed free check = 100%; averaged across four replications; moisture standardized; Fithian, Ill.
From the text: Soybean seed was secured for an in-field research trial. The soybean seed is genetically modified to be tolerant to applications of HPPD (4-hydroxyphenyl-pyruvate-dioxygenase) inhibiting herbicides (example: BALANCE PRO or isoxaflutole) and glyphosate (ROUNDUP ORIGINAL MAX). The trait is known as FG72.
The site was conventionally tilled and free of weeds at the time of planting. The soybean seed was planted in 30″ rows on Jun. 18, 2008. Broadcast spray treatments of a first herbicidal treatment composition comprising isoxaflutole were applied using a tractor mounted sprayer on Jun. 20, 2008. All areas of the field, including a weed-free check (control) that was not treated with isoxaflutole, were additionally treated on Jun. 20, 2008, with PURSUIT PLUS herbicide, a combination of 2.24% imazethapyr and 30.24% pendimethalin, available from BASF. The application was made prior to soybean and weed emergence.
To avoid any interference of weed effects on yield in the trial, the entire trial site was kept weed free for the entire growing season. […]
The trial was evaluated for herbicidal treatment effect on yield. […] Data was entered into and analyzed with ARM computer software. […] Treatment differences were determined using least significant differences (LSD, P=0.05).

## CS(=O)(=O)c1cc(C(F)(F)F)ccc1C(=O)c1cnoc1C1CC1 [isoxaflutole, 5-cyclopropyl-4-(2-methylsulfonyl-4-trifluoromethylbenzoyl) isoxazole]
  soybean seed yield as percent of the weed free check: 108.5%
